The results in this text go back to patent publication US6858739B2, “Indole and benzimidazole 15-lipoxygenase inhibitors” (Warner-Lambert Company, priority 2000, dated 2005).

Molecules are shown by their SMILES.

For data set [1], the target named is T1, rabbit reticulocyte 15-LO (Oryctolagus cuniculus, UniProt P12530).
T1 construct: one utilizing rabbit reticulocyte 15-LO; from tissue; host or cells: rabbit reticulocytes
T1 sequence (P12530 1-663): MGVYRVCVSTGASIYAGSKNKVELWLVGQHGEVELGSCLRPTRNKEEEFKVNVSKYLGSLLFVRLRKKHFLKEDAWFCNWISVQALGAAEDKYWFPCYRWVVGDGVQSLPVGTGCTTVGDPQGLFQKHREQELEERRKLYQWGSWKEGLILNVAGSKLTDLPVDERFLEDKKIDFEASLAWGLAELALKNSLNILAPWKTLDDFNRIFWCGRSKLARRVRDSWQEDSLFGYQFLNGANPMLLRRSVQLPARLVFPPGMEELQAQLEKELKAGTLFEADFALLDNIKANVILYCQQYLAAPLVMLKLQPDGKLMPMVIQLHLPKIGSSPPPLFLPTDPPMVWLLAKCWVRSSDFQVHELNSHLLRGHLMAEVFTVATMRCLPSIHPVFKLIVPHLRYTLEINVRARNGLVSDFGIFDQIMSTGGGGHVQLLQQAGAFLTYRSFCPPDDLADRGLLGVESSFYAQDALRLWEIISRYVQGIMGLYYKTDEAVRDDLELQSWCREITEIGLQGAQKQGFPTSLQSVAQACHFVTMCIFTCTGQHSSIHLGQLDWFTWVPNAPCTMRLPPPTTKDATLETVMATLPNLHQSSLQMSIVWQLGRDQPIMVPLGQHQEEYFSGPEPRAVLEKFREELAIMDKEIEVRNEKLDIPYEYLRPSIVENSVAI
The experiment in a line: 15-LO inhibition, rabbit reticulocyte enzyme (HPLC method of Auerbach et al.). Conditions: linoleic acid as substrate, incubation at 4° C. for 10 minutes. In kind it is biochemical. The method, then: (§1) The compounds described above are effective inhibitors of 15-LO when evaluated in standard assays routinely utilized to measure 15-LO activity. Specifically, representative compounds were evaluated by the methods described by Auerbach et al., Analytical Biochemistry, 1992;201:375-380. Two in vitro assays were utilized, one utilizing rabbit reticulocyte 15-LO, the other using human 15-LO. Both used linoleic acid as substrate, to enzymatically produce a peroxide oxidation product known as 13(S)-HPODE. N-Benzoyl leucomethylene blue was utilized as a colorimetric reagent for detection and quantification of the peroxide formation. Also, HPLC was utilized to quantify the oxidation following incubation at 4° C. for 10 minutes.
(§2) Data Column 1 gives the concentration of compound required to inhibit 50% of the activity of 15-LO (IC50) when measured by the HPLC method of Auerbach et al. using rabbit enzymes, and data Column 2 gives data from human 15-LO enzyme.

The next data set addresses T2, human 15-LO (Homo sapiens, UniProt P16050).
T2 sequence (P16050 1-662): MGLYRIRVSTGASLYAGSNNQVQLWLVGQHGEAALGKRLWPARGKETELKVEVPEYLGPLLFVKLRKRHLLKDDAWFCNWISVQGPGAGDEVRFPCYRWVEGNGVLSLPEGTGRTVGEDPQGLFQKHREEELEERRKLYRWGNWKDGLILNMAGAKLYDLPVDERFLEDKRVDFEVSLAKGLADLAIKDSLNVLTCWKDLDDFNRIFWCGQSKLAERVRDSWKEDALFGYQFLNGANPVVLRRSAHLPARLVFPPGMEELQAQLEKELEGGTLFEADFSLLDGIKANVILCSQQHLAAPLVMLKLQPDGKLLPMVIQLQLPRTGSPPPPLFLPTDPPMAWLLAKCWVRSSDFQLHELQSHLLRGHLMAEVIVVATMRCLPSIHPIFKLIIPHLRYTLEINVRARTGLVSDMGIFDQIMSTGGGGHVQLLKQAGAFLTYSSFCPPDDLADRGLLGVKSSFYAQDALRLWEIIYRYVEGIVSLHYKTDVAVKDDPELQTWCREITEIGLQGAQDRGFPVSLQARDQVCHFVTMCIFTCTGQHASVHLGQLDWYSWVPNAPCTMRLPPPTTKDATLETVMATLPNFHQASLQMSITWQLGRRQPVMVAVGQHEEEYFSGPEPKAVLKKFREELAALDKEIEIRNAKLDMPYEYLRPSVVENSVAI
Put plainly: 15-LO inhibition, human enzyme. Format: biochemical. Conditions: linoleic acid as substrate. The procedure: as §1, §2

On to `COc1ccc(-c2cc3cc(F)c(F)cc3[nH]2)cc1NS(=O)(=O)c1cccc([N+](=O)[O-])c1` [Example 15, N-[5-(5,6-Difluoro-1H-indol-2-yl)-2-methoxy-phenyl]-3-nitro-benzenesulfonamide], for which the melting point (usually the temperature of the solid-liquid transition) was in the range of 228 to 230 °C. Further, in data set [1], the IC50 (commonly the concentration at which inhibition is half-maximal) came out at 124 nM. At human 15-LO, this molecule gave an IC50 of 49 nM.

Turning to `COc1ccc(-c2cc3cc(Cl)c(Cl)cc3[nH]2)cc1N` [Example 18, 5-(5,6-Dichloro-1H-indol-2-yl)-2-methoxy-phenylamine], the melting point was in the range of 235 to 237 °C. Moreover, it took 37 nM to reach half-maximal inhibition in data set [1] (IC50). On human 15-LO, this molecule showed an IC50 of 359 nM.

`COc1ccc(-c2cc3cc(Cl)c(Cl)cc3[nH]2)cc1NC(=S)Nc1cccc(C(=O)O)c1` [Example 19, 3-{3-[5-(5,6-Dichloro-1H-indol-2-yl)-2-methoxy-phenyl]-thioureido}-benzoic acid]: the melting point was in the range of 216 to 218 °C. The molecule further came in with an IC50 in data set [1] of 13 nM. This molecule also showed an IC50 against human 15-LO of 254 nM.

With `CCOP(=O)(Cc1ccc(NC(=S)Nc2cc(-c3cc4cc(F)c(F)cc4[nH]3)ccc2OC)cc1)OCC` [Example 24, (4-{3-[5-(5,6-Difluoro-1H-indol-2-yl)-2-methoxy-phenyl]-thioureido}-benzyl)-phosphonic acid diethyl ester], the melting point was 180 to 182 °C. Besides, the IC50 in data set [1] turned out to be 18 nM. On human 15-LO, this molecule came in with an IC50 of 91 nM.

Regarding `COc1ccc(-c2cc3cc(F)c(F)cc3[nH]2)cc1NC(=S)NCCO` [Example 37, 1-[5-(5,6-Difluoro-1H-indol-2-yl)-2-methoxy-phenyl]-3-(2-hydroxy-ethyl)-thiourea], the melting point lay in the range of 191 to 193 °C. Further, it took 45 nM to reach half-maximal inhibition in data set [1] (IC50). On human 15-LO, this molecule had an IC50 of 33 nM.

With `COc1ccc(-c2cc3cc(F)c(F)cc3[nH]2)cc1NC(=S)NCCNC(=O)OC(C)(C)C` [Example 38, (2-{3-[5-(5,6-Difluoro-1H-indol-2-yl)-2-methoxy-phenyl]-thioureido}-ethyl)-carbamic acid tert-butyl ester], the melting point was in the range of 110 to 113 °C. In data set [1], this molecule showed a half-maximal inhibitory concentration (IC50) of 19 nM. This molecule displayed an IC50 against human 15-LO of 25 nM.

Take `COc1ccc(-c2cc3cc(F)c(F)cc3[nH]2)cc1NC(=S)Nc1ccc(F)c(F)c1` [Example 39, 1-[5-(5,6-Difluoro-1H-indol-2-yl)-2-methoxy-phenyl]-3-(3,4-difluoro-phenyl)-thiourea]: the melting point lay in the range of 183 to 186 °C. It took 17 nM to reach half-maximal inhibition in data set [1] (IC50). The same molecule registered an IC50 at human 15-LO of 36 nM.

The molecule `COc1ccc(-c2cc3cc(F)c(F)cc3[nH]2)cc1NC(=S)Nc1cccnc1` [Example 41, 1-[5-(5,6-Difluoro-1H-indol-2-yl)-2-methoxy-phenyl]-3-pyridin-3-yl-thiourea] displayed a melting point of 128 to 130 °C. For the same molecule, the IC50 in data set [1] came out at 5 nM. On human 15-LO, half-maximal inhibition (IC50) was put at 10 nM.

`COc1ccc(-c2cc3cc(F)c(F)cc3[nH]2)cc1NCc1ccc(C#N)cc1` [Example 50, [5-(5,6-Difluoro-1H-indol-2-yl)-2-methoxy-phenyl]-(4-cyano-benzyl)-amine] showed a melting point of 158 to 159 °C. The molecule also showed an IC50 in data set [1] of 74 nM. In addition, at human 15-LO, the midpoint of inhibition, the IC50, lay at 116 nM.
